Source: patent US11731964B2, “Benzamide antibacterial agents” (Purdue Research Foundation, priority 2018, dated 2023)
In brackets after ≈: the same amount, converted by molar mass.

Assays:
Assay type in all cases: cell-based
S. aureus [1] = assay: Screening of compounds for growth inhibition of S. aureus at 16 μg/mL (OD600); conditions: compound at 16 μg/mL, 24 hours, compared to DMSO control
Description: Library compounds and analogs of F6 were dissolved in DMSO at 10 mg/mL. S. aureus was cultured in Mueller Hinton Broth to early exponential phase at which point culture aliquots were incubated with compounds at 16 μg/mL or DMSO in duplicates. The culture was continued at 37° C. for 24 hours. Aliquots (100 μL) of the cultures were dispensed into clear 96 well microtiter plates and OD600 was recorded. Percent normalized OD600 was obtained by using the equation [formula] wherein for a given compound, X is the OD600 of culture with the compound, Xo is that of media only and XT is the OD600 of the DMSO control.

MRSA ATCC 33592 = assay: MIC, broth microdilution; conditions: Staphylococcus aureus; MRSA ATCC 33592; read-out: MIC
Description: (§1) Bacteria were cultured in cation-adjusted Mueller Hinton Broth (for strains in Tables 1 and 4) or Brain Heart Infusion broth (for Enterococcus faecium) or Tryptic Soy Broth (all other bacteria) in a 96-well plate at 37° C. for at least 20 hours. The MIC was classified as the lowest concentration where no visual growth of bacteria was observed. The minimum bactericidal concentration (MBC) was tested by spotting 4 μL from wells with no growth onto Tryptic Soy Agar (TSA) plates. Plates were incubated at 37° C. for at least 18 hours before recording the MBC.

E. faecalis = assay: MIC (Table 5, strain not given); conditions: Enterococcus faecalis; E. faecalis (Table 5)
Description: as §1

S. aureus [2] = assay: MIC (Table 5, strain not given); conditions: Staphylococcus aureus; S. aureus (Table 5)
Description: as §1

VRE = assay: MIC (Table 5, strain not given); conditions: Enterococcus; VRE (Table 5)
Description: as §1

S. aureus ATCC 25923 = assay: MIC, broth microdilution; conditions: Staphylococcus aureus, ATCC25923; S. aureus ATCC 25923; read-out: MIC
Description: as §1

| Compound | inhibition of growth of S. aureus (S. aureus [1]) | MIC (MRSA ATCC 33592) [µg/mL] | MIC (S. aureus [2]) [µg/mL] | also measured |
| --- | --- | --- | --- | --- |
| CC1CC(C)CN(S(=O)(=O)c2ccc(C(=O)Nc3nnc(C4CCCO4)s3)cc2)C1 (centres unmarked) [Compound F6-2, 4-((3,5-Dimethylpiperidin-1-yl)sulfonyl)-N-(5-(tetrahydrofuran-2-yl)-1,3,4-thiadiazol-2-yl)benzamide] | inactive |  |  |  |
| CCOC(=O)c1nnc(NC(=O)c2ccc(S(=O)(=O)N3CC(C)CC(C)C3)cc2)o1 (centres unmarked) [Compound F6-3, Ethyl 5-(4-((3,5-dimethylpiperidin-1-yl)sulfonyl)benzamido)-1,3,4-oxadiazole-2-carboxylate] | inactive |  |  |  |
| CC1CC(C)CN(S(=O)(=O)c2ccc(-c3nnc(-c4cccs4)o3)cc2)C1 (centres unmarked) [Compound F6-4, 2-(4-((3,5-Dimethylpiperidin-1-yl)sulfonyl)phenyl)-5-(thiophen-2-yl)-1,3,4-oxadiazole] | not active |  |  |  |
| CC1CC(C)CN(S(=O)(=O)c2ccc(C(=O)Nc3nnc(-c4cccs4)[nH]3)cc2)C1 (centres unmarked) [Compound F6-6, 4-((3,5-Dimethylpiperidin-1-yl)sulfonyl)-N-(5-(thiophen-2-yl)-4H-1,2,4-triazol-3-yl)benzamide] | activity was lost |  |  |  |
| CC1CC(C)CN(S(=O)(=O)c2ccc(C(=O)Nc3nnc(-c4cccs4)s3)cc2)C1 (centres unmarked) [Compound F6-7, 4-((3,5-Dimethylpiperidin-1-yl)sulfonyl)-N-(5-(thiophen-2-yl)-1,3,4-thiadiazol-2-yl)benzamide] | activity was lost |  |  |  |
| O=C(Nc1nnc(-c2ccco2)o1)c1ccc(S(=O)(=O)N2CCOCC2)cc1 [Compound F9] | not active |  |  |  |
| CN(CC1CCCO1)S(=O)(=O)c1ccc(C(=O)Nc2nnc(-c3ccccc3)o2)cc1 (centres unmarked) [Compound G9] | only slightly inhibited growth |  |  |  |
| O=C(Nc1nnc(-c2cccs2)o1)c1ccc(S(=O)(=O)Cc2ccccc2)cc1 [HSGN-104, 4-(benzylsulfonyl)-N-(5-(thiophen-2-yl)-1,3,4-oxadiazol-2-yl)benzamide] |  | 32 (≈ 75.2 µM) | 64 (≈ 150 µM) | MIC (E. faecalis): 64 µg/mL (≈ 150 µM); MIC (VRE): > 128 µg/mL |
| C[C@@H]1C[C@H](C)CN(S(=O)(=O)c2ccc(C(=O)Nc3nnc(-c4cccc(Cl)c4)o3)cc2)C1 [HSGN-110, N-(5-(3-chlorophenyl)-1,3,4-oxadiazol-2-yl)-4-(((3S,5R)-3,5-dimethylpiperidin-1-yl)sulfonyl)benzamide] |  | 0.5 (≈ 1.05 µM) | 1 (≈ 2.11 µM) | MIC (E. faecalis): 1 µg/mL (≈ 2.11 µM); MIC (VRE): 2 µg/mL (≈ 4.21 µM) |
| C[C@@H]1C[C@H](C)CN(S(=O)(=O)c2ccc(C(=O)Nc3nnc(-c4cccc(F)c4)o3)cc2)C1 [HSGN-111, 4-(((3S,5R)-3,5-dimethylpiperidin-1-yl)sulfonyl)-N-(5-(3-fluorophenyl)-1,3,4-oxadiazol-2-yl)benzamide] |  | 0.5 (≈ 1.09 µM) | 2 (≈ 4.36 µM) | MIC (E. faecalis): 2 µg/mL (≈ 4.36 µM); MIC (VRE): 2 µg/mL (≈ 4.36 µM) |
| COc1cccc(-c2nnc(NC(=O)c3ccc(S(=O)(=O)N4C[C@H](C)C[C@H](C)C4)cc3)o2)c1 [HSGN-112, 4-(((3S,5R)-3,5-dimethylpiperidin-1-yl)sulfonyl)-N-(5-(3-methoxyphenyl)-1,3,4-oxadiazol-2-yl)benzamide] |  | 2 (≈ 4.25 µM) | 4 (≈ 8.5 µM) | MIC (E. faecalis): 8 µg/mL (≈ 17 µM); MIC (VRE): 4 µg/mL (≈ 8.5 µM) |
| C[C@@H]1C[C@H](C)CN(S(=O)(=O)c2ccc(C(=O)Nc3nnc(-c4cccc(C(=N)NO)c4)o3)cc2)C1 [HSGN-151, 4-(((3S,5R)-3,5-dimethylpiperidin-1-yl)sulfonyl)-N-(5-(3-(N-hydroxycarbamimidoyl)phenyl)-1,3,4-oxadiazol-2-yl)benzamide] |  | > 64 | > 64 |  |
| C[C@@H]1C[C@H](C)CN(S(=O)(=O)c2ccc(C(=O)Nc3ccc4[nH]c(=O)oc4c3)cc2)C1 [HSGN-158, 4-(((3S,5R)-3,5-dimethylpiperidin-1-yl)sulfonyl)-N-(2-oxo-2,3-dihydrobenzo[d]oxazol-6-yl)benzamide] |  | > 64 | > 64 |  |
| O=C1CN(S(=O)(=O)c2ccc(C(=O)Nc3nnc(-c4ccc(C(F)(F)F)cc4)o3)cc2)CCN1 [HSGN-162, 4-((3-oxopiperazin-1-yl)sulfonyl)-N-(5-(4-(trifluoromethyl)phenyl)-1,3,4-oxadiazol-2-yl)benzamide] |  | > 64 | > 64 |  |
| C[C@@H]1C[C@H](C)CN(S(=O)(=O)c2cccc(C(=O)Nc3nnc(-c4ccc(C(F)(F)F)cc4)o3)c2)C1 [HSGN-176, 3-(((3S,5R)-3,5-dimethylpiperidin-1-yl)sulfonyl)-N-(5-(4-(trifluoromethyl)phenyl)-1,3,4-oxadiazol-2-yl)benzamide] |  | 8 (≈ 15.7 µM) | 8 (≈ 15.7 µM) |  |
| Cc1ccc(C(=O)Nc2nnc(-c3ccc(C(F)(F)F)cc3)o2)cc1S(=O)(=O)N1C[C@H](C)C[C@H](C)C1 [HSGN-177, 3-(((3S,5R)-3,5-dimethylpiperidin-1-yl)sulfonyl)-4-methyl-N-(5-(4-(trifluoromethyl)phenyl)-1,3,4-oxadiazol-2-yl)benzamide] |  | 1 (≈ 1.91 µM) | 2 (≈ 3.83 µM) |  |
| C[C@@H]1C[C@H](C)CN(S(=O)(=O)c2ccc(C(=O)Nc3nnc(-c4ccccc4)o3)cc2)C1 [HSGN-180, 4-(((3S,5R)-3,5-dimethylpiperidin-1-yl)sulfonyl)-N-(5-phenyl-1,3,4-oxadiazol-2-yl)benzamide] |  | 4 (≈ 9.08 µM) | 4 (≈ 9.08 µM) |  |
| Cc1ccc(-c2nnc(NC(=O)c3ccc(S(=O)(=O)N4C[C@H](C)C[C@H](C)C4)cc3)o2)cc1 [HSGN-181, 4-(((3S,5R)-3,5-dimethylpiperidin-1-yl)sulfonyl)-N-(5-(p-tolyl)-1,3,4-oxadiazol-2-yl)benzamide] |  | 8 (≈ 17.6 µM) | 16 (≈ 35.2 µM) |  |
| C[C@@H]1C[C@H](C)CN(S(=O)(=O)c2ccc(C(=O)Nc3nnc(-c4ccc(F)cc4F)o3)cc2)C1 [HSGN-182, N-(5-(2,4-difluorophenyl)-1,3,4-oxadiazol-2-yl)-4-(((3S,5R)-3,5-dimethylpiperidin-1-yl)sulfonyl)benzamide] |  | 8 (≈ 16.8 µM) | 8 (≈ 16.8 µM) |  |
| Cc1cc(C(=O)Nc2nnc(-c3ccc(C(F)(F)F)cc3)o2)ccc1S(=O)(=O)N1C[C@H](C)C[C@H](C)C1 [HSGN-189, 4-(((3S,5R)-3,5-dimethylpiperidin-1-yl)sulfonyl)-3-methyl-N-(5-(4-(trifluoromethyl)phenyl)-1,3,4-oxadiazol-2-yl)benzamide] |  | 0.25 (≈ 0.478 µM) | 0.25 (≈ 0.478 µM) |  |
| CCCCOc1ccc(-c2nnc(NC(=O)c3ccc(S(=O)(=O)N4C[C@H](C)C[C@H](C)C4)cc3)o2)cc1 [HSGN-191, N-(5-(4-butoxyphenyl)-1,3,4-oxadiazol-2-yl)-4-(((3S,5R)-3,5-dimethylpiperidin-1-yl)sulfonyl)benzamide] |  | 16 (≈ 31.2 µM) | 16 (≈ 31.2 µM) |  |
| Cc1cc(C(=O)Nc2nnc(-c3ccc(C(F)(F)F)cc3)o2)ccc1S(=O)(=O)N1CCC(C)CC1 [HSGN-195, 3-methyl-4-((4-methylpiperidin-1-yl)sulfonyl)-N-(5-(4-(trifluoromethyl)phenyl)-1,3,4-oxadiazol-2-yl)benzamide] |  | 0.5 (≈ 0.983 µM) | 1 (≈ 1.97 µM) |  |
| COc1cccc(OC)c1C(=O)N[C@@H]1C(=O)N2[C@@H]1SC(C)(C)[C@@H]2C(=O)O [Methicillin, reference compound] |  | > 128 |  | MIC (S. aureus ATCC 25923): 2 µg/mL (≈ 5.26 µM) |
